# Test results published in patent publication US9029415B2, “Cooling mixtures with an enhanced cooling effect of 5-methyl-2-(propane-2-yl)cyclohexyl-N-ethyloxamate” (Symrise AG, priority 2010, dated 2015).
# What was measured:
# skin = experiment: Cooling effect of the formulation examples as perceived by the test persons; type: in vivo, human
# From the text: Provided the corresponding formulations also contained trans-4-tert. butylcyclohexanol, the cooling effect was even further enhanced compared to formulations without this compound.
# [1] = test system: skin (both cheeks) of test persons; experiment: In-vivo half-side cheek test of cooling intensity of O/W cream samples (20 panellists, scale 1-10, 30 minutes); parameters: species or system human; conditions: FIG. 1
# Experimental: The aim of the human in vivo studies was to test the effect of the cooling mixture according to the invention in O/W formulations with regard to their cooling intensity. What was to be examined here was whether the cooling effect/cooling intensity of 5-methyl-2-(propane-2-yl)cyclohexyl-N-ethyloxamate will be enhanced in the combination of active substances according to the invention. Each individual test was carried out using 20 panellists under standardized conditions in a test institute. To this end, each test person spread two defined quantities of cream samples onto both cheeks at the same time. […] Upon application of the samples, the test persons evaluated the cooling intensities on a scale of 1-10 within a period of 30 minutes (1=weak; 10=strong). The studies were carried out as double blind studies, therefore the test institute received the formulations in an encoded form. In order to ensure test standardization, the following conditions were selected: • Controlled ventilation and temperature conditions in the room of the test persons • Use of a standardized test protocol • Detailed explanation of the test protocol • Samples were given to the test persons in uniform, clear containers • Samples were labeled with a three-digit code • A sample amount of 0.3 g of cream was applied onto each cheek • Samples were covered with a lid in order to avoid drying out of the samples • Test persons were instructed not to use any makeup on the day of the test and not to use any cosmetic products at least two hours before the test • The test persons evaluated the cooling effect of the two products on a scale of 1-10 (1=weak, 10=strong) at 32 identical points in time
# The data obtained during the studies was examined with regard to any significant differences between the two samples. To this end, the data was initially examined for standard normal distribution. Provided the data met the criteria of a standard normal distribution, a pairwise t test was carried out. […] Where no normal distribution of the values was found, significance was determined via a non-parametric Wilcoxon. […]
smiles,measurement,setting,value
"CCCCCCCCC(O)CO (centres unmarked) [1,2-decanediol]","enhancement of cooling effect when 1,2-pentanediol is replaced","skin; 1,2-pentanediol replaced with 1,2-decanediol in an amount of one fifth of the pentanediol",applies analogously
"CCCCC(O)CO (centres unmarked) [1,2-hexanediol]","enhancement of cooling effect when 1,2-pentanediol is replaced","skin; 1,2-pentanediol in the formulations replaced with 1,2-hexanediol at a ratio of 5:3",comparable effects are achieved
"CCNC(=O)C(=O)O[C@@H]1C[C@H](C)CC[C@H]1C(C)C [MEO, (1R,2S,5R)-5-methyl-2-(propane-2-yl)cyclohexyl N ethyl oxamate]","cooling effect (cooling intensity, scale 1-10)","[1]; O/W emulsion with 1.0 % MEO, 0.3 g cream per cheek, 20 panellists",marked cooling effect
same,onset of the cooling effect,[1]; after application of the formulation onto the cheek,immediately upon application
same,duration of the cooling effect,[1]; evaluation period 30 minutes,more than 30 minutes
